# Measured values published in the supplement of paper PMC10307832.
# Compound: CC1=CC(=C(N1C2=CC=C(C=C2)Cl)C)C(=O)CN3CCCCC3 [IU1-47] + COc1cc2c(Oc3ccc(NC(=O)C4(C(=O)Nc5ccc(F)cc5)CC4)cc3F)ccnc2cc1OCCCN1CCOCC1 [Foretinib] (partner 0.25 µM)
# Assay: relative viability (nuclei count vs DMSO), 5 days (fraction); higher = more cells survive
# Conditions: first compound 0.08 µM
# Outline: (§1)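 Lung cancer cell lines were pin-tool dosed in 1536-well plates on the day after seeding, with either a lone drug or a fixed anchor-drug dose plus five library-drug doses (not always all listed) in √10 steps. Nuclei were counted on 4× images after 5 days. Relative viability is the ratio of treated-well to vehicle-well nuclei counts, with each value a median of duplicate plates.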
row,Cell Line,relative viability
1,NCI-H2405,1.13
2,HOP-62,1.17
3,LU99A,0.768
4,BEN,0.618
5,HARA,1.02
6,HCC-78,0.608
7,NCI-H322M,1.07
8,LCLC-97TM1,0.957
9,A-427,1.08
10,NCI-H441,0.873
11,NCI-H1734,0.89
12,NCI-H460,1.09
13,NCI-H2347,0.707
14,NCI-H1395,0.944
15,201T,1.31
16,NCI-H1915,1.12
17,HCC-827,1.15

row,Cell Line,relative viability
1,LXF-289,1.01
2,NCI-H23,0.91
3,NCI-H647,1.12
4,CAL-12T,1.12
5,NCI-H1651,0.946
6,EPLC-272H,0.659
7,NCI-H1355,1.06
8,NCI-H1437,1.31
9,NCI-H1755,0.932
10,HCC-15,1.07
11,NCI-H1793,0.75
12,PC-14,1.07
13,EKVX,1.12
14,LC-2-ad,1
15,NCI-H1944,1.03
16,NCI-H1975,0.967

# Same assay, conditions: first compound 0.253 µM
row,Cell Line,relative viability
1,NCI-H2405,1.11
2,HOP-62,1.12
3,LU99A,0.759
4,BEN,0.676
5,HARA,1.1
6,HCC-78,0.57
7,NCI-H322M,1.03
8,LCLC-97TM1,1.02
9,A-427,1.16
10,NCI-H441,1.15
11,NCI-H1734,0.888
12,NCI-H460,1.04
13,NCI-H2347,0.605
14,NCI-H1395,0.895
15,201T,1.22
16,NCI-H1915,1.12
17,HCC-827,1.12

row,Cell Line,relative viability
1,LXF-289,1.06
2,NCI-H23,1.14
3,NCI-H647,1.36
4,CAL-12T,1.1
5,NCI-H1651,0.869
6,EPLC-272H,0.775
7,NCI-H1355,1.06
8,NCI-H3122,0.94
9,NCI-H1437,1.29
10,NCI-H1755,0.926
11,HCC-15,1.11
12,NCI-H1793,0.764
13,PC-14,1.03
14,EKVX,1.19
15,LC-2-ad,1.07
16,NCI-H1944,0.954
17,NCI-H1975,0.949

# Same assay, conditions: first compound 0.8 µM
row,Cell Line,relative viability
1,NCI-H2405,1
2,HOP-62,1.04
3,LU99A,0.859
4,BEN,0.646
5,HARA,1.04
6,HCC-78,0.615
7,NCI-H322M,0.882
8,LCLC-97TM1,0.892
9,A-427,1.22
10,NCI-H441,0.986
11,NCI-H1734,0.844
12,NCI-H460,1.26
13,NCI-H2347,0.843
14,NCI-H1395,1.12
15,201T,1.26
16,NCI-H1915,1.15
17,HCC-827,0.998

row,Cell Line,relative viability
1,LXF-289,1.1
2,NCI-H23,1.04
3,CAL-12T,1.13
4,NCI-H1651,0.903
5,EPLC-272H,0.764
6,NCI-H1355,0.946
7,NCI-H3122,1.02
8,NCI-H1437,1.28
9,NCI-H1755,0.961
10,HCC-15,1.15
11,NCI-H1793,0.765
12,PC-14,0.954
13,EKVX,0.769
14,LC-2-ad,0.908
15,NCI-H1944,0.905
16,NCI-H1975,0.971

# Same assay, conditions: first compound 2.53 µM
row,Cell Line,relative viability
1,NCI-H2405,1.05
2,HOP-62,1.11
3,LU99A,0.932
4,HCC-78,0.551
5,NCI-H322M,0.965
6,LCLC-97TM1,0.725
7,NCI-H441,1.13
8,NCI-H460,0.86
9,NCI-H2347,1.17
10,NCI-H1395,0.939
11,201T,1.05
12,HCC-827,1.02
13,LXF-289,0.967
14,NCI-H23,1.17
15,NCI-H647,1.25
16,CAL-12T,1.11
17,NCI-H1651,0.787
18,NCI-H3122,1.07
19,NCI-H1437,1.22
20,NCI-H1755,0.973
21,HCC-15,1.01
22,PC-14,0.959
23,EKVX,0.265
24,LC-2-ad,0.794
25,NCI-H1944,0.824
26,NCI-H1975,1.1

# Same assay, conditions: first compound 8 µM
row,Cell Line,relative viability
1,NCI-H2405,1.07
2,HOP-62,1.13
3,LU99A,0.702
4,BEN,0.61
5,HARA,0.742
6,HCC-78,0.606
7,NCI-H322M,1.03
8,LCLC-97TM1,0.856
9,A-427,0.93
10,NCI-H441,0.864
11,NCI-H1734,0.765
12,NCI-H460,1.15
13,NCI-H2347,1.1
14,NCI-H1395,1
15,201T,1.09
16,NCI-H1915,1.1
17,HCC-827,1.01

row,Cell Line,relative viability
1,LXF-289,0.902
2,NCI-H23,1.03
3,NCI-H647,1.34
4,CAL-12T,1.03
5,NCI-H1651,0.973
6,EPLC-272H,0.606
7,NCI-H1355,0.998
8,NCI-H3122,0.976
9,NCI-H1437,1.2
10,NCI-H1755,0.934
11,HCC-15,1.05
12,NCI-H1793,0.688
13,PC-14,0.907
14,EKVX,0.85
15,LC-2-ad,0.878
16,NCI-H1944,0.759
17,NCI-H1975,0.858

# Compound: CC1=CC(=C(N1C2=CC=C(C=C2)Cl)C)C(=O)CN3CCCCC3 [IU1-47] + Cc1cc(Nc2cc(N3CCN(C)CC3)nc(Sc3ccc(NC(=O)C4CC4)cc3)n2)n[nH]1 [Tozasertib] (partner 0.1 µM)
# Assay: as above
# Conditions: first compound 0.08 µM
# Outline: as §1
row,Cell Line,relative viability
1,NCI-H2405,0.753
2,HOP-62,0.351
3,LU99A,0.283
4,BEN,0.499
5,HARA,0.0876
6,HCC-78,0.37
7,NCI-H322M,0.496
8,LCLC-97TM1,0.217
9,A-427,0.201
10,NCI-H441,0.824
11,NCI-H1734,0.299
12,NCI-H460,0.459
13,NCI-H2347,0.561
14,NCI-H1395,0.739
15,201T,0.991
16,NCI-H1915,0.472
17,HCC-827,0.458

row,Cell Line,relative viability
1,LXF-289,0.212
2,NCI-H23,0.364
3,NCI-H647,0.372
4,CAL-12T,0.408
5,NCI-H1651,0.717
6,EPLC-272H,0.228
7,NCI-H1355,0.483
8,NCI-H3122,0.442
9,NCI-H1437,0.413
10,NCI-H1755,0.583
11,HCC-15,0.385
12,NCI-H1793,0.346
13,PC-14,0.707
14,EKVX,0.418
15,LC-2-ad,0.465
16,NCI-H1944,0.231
17,NCI-H1975,0.925

# Same assay, conditions: first compound 0.253 µM
row,Cell Line,relative viability
1,NCI-H2405,0.801
2,HOP-62,0.404
3,LU99A,0.266
4,BEN,0.444
5,HARA,0.0862
6,HCC-78,0.508
7,NCI-H322M,0.558
8,LCLC-97TM1,0.235
9,A-427,0.208
10,NCI-H441,0.713
11,NCI-H1734,0.252
12,NCI-H460,0.513
13,NCI-H2347,0.518
14,NCI-H1395,0.692
15,201T,0.947
16,NCI-H1915,0.467
17,HCC-827,0.424

row,Cell Line,relative viability
1,LXF-289,0.203
2,NCI-H23,0.341
3,NCI-H647,0.309
4,CAL-12T,0.326
5,NCI-H1651,0.58
6,EPLC-272H,0.347
7,NCI-H1355,0.606
8,NCI-H3122,0.423
9,NCI-H1437,0.396
10,NCI-H1755,0.687
11,HCC-15,0.432
12,NCI-H1793,0.319
13,PC-14,0.685
14,EKVX,0.433
15,LC-2-ad,0.396
16,NCI-H1944,0.248
17,NCI-H1975,0.85

# Same assay, conditions: first compound 0.8 µM
row,Cell Line,relative viability
1,NCI-H2405,0.755
2,HOP-62,0.384
3,LU99A,0.282
4,BEN,0.49
5,HARA,0.0879
6,HCC-78,0.479
7,NCI-H322M,0.506
8,LCLC-97TM1,0.251
9,A-427,0.236
10,NCI-H441,0.667
11,NCI-H1734,0.264
12,NCI-H460,0.496
13,NCI-H2347,0.632
14,NCI-H1395,0.835
15,201T,1.05
16,NCI-H1915,0.499
17,HCC-827,0.449

row,Cell Line,relative viability
1,LXF-289,0.224
2,NCI-H23,0.427
3,CAL-12T,0.34
4,NCI-H1651,0.753
5,EPLC-272H,0.246
6,NCI-H1355,0.506
7,NCI-H3122,0.371
8,NCI-H1437,0.396
9,NCI-H1755,0.612
10,HCC-15,0.354
11,NCI-H1793,0.296
12,PC-14,0.661
13,EKVX,0.367
14,LC-2-ad,0.465
15,NCI-H1944,0.265
16,NCI-H1975,0.719

# Same assay, conditions: first compound 2.53 µM
row,Cell Line,relative viability
1,NCI-H2405,0.735
2,HOP-62,0.412
3,LU99A,0.314
4,BEN,0.631
5,HCC-78,0.372
6,NCI-H322M,0.54
7,LCLC-97TM1,0.358
8,NCI-H441,0.662
9,NCI-H460,0.57
10,NCI-H2347,0.51
11,NCI-H1395,0.8
12,HCC-827,0.409
13,LXF-289,0.22
14,NCI-H23,0.376
15,NCI-H647,0.248
16,CAL-12T,0.318
17,NCI-H1651,0.72
18,NCI-H3122,0.46
19,NCI-H1437,0.398
20,NCI-H1755,0.631
21,EKVX,0.341
22,LC-2-ad,0.444
23,NCI-H1944,0.283
24,NCI-H1975,0.882

# Same assay, conditions: first compound 8 µM
row,Cell Line,relative viability
1,NCI-H2405,0.692
2,HOP-62,0.354
3,LU99A,0.231
4,BEN,0.506
5,HARA,0.0969
6,HCC-78,0.404
7,NCI-H322M,0.477
8,LCLC-97TM1,0.198
9,A-427,0.212
10,NCI-H441,0.544
11,NCI-H1734,0.235
12,NCI-H460,0.393
13,NCI-H2347,0.445
14,NCI-H1395,0.718
15,201T,0.762
16,NCI-H1915,0.359
17,HCC-827,0.383

row,Cell Line,relative viability
1,LXF-289,0.171
2,NCI-H23,0.341
3,NCI-H647,0.306
4,CAL-12T,0.287
5,NCI-H1651,0.762
6,EPLC-272H,0.145
7,NCI-H1355,0.546
8,NCI-H3122,0.331
9,NCI-H1437,0.347
10,NCI-H1755,0.563
11,HCC-15,0.227
12,NCI-H1793,0.299
13,PC-14,0.581
14,EKVX,0.349
15,LC-2-ad,0.377
16,NCI-H1944,0.265
17,NCI-H1975,0.487

# Compound: CC1=CC(=C(N1C2=CC=C(C=C2)Cl)C)C(=O)CN3CCCCC3 [IU1-47] + NC(=O)Nc1cc(-c2cccc(F)c2)sc1C(=O)N[C@H]1CCCNC1 [AZD7762] (partner 0.2 µM)
# Assay: as above
# Conditions: first compound 0.08 µM
# Outline: as §1
row,Cell Line,relative viability
1,NCI-H2405,0.795
2,HOP-62,0.488
3,LU99A,0.404
